Laboratory results from US4659716A, “Antihistaminic 8-(halo)-substituted 6,11-dihydro-11-(4-piperidylidene)-5H-benzo[5,6]cyclohepta[1,2-b]pyridin es” (Schering Corporation, priority 1986, dated 1987).

Key:
[1] = tested on: histamine-induced lethality; experiment: Prevention of histamine-induced lethality in guinea pigs (A); type: in vivo, guinea pigs (female albino); settings: Cavia porcellus; oral, 1 hour prior to i.v. histamine 1.1 mg/kg; read-out: Antihistaminic Activity, A. G. pig. p.o. ED50
Protocol: A. Prevention of histamine-induced lethality in guinea pigs. […] Doses of the antagonists were administered orally to separate groups of fasted animals 1 hour prior to the challenge with histamine and protection from death recorded for 30 minutes after histamine. ED50 values were determined for each drug by […].

[2] = tested on: histamine-induced paw edema; experiment: Histamine-induced paw edema in mice (oral); type: in vivo, mice (male CF1)
Protocol: For example, the ability of the compounds to reduce histamine-induced paw edema in mice may be measured by use of the following method.
Male CF1 mice, 25-30 g, are housed under conditions of controlled temperature and humidity with a 12 hour dark/light cycle. Food and water are allowed ad libitum. The mice are randomly assigned to the treatment groups. One hour after treatment with a compound of the invention or vehicle, the mice are lightly anesthetized with ether. The left hind paw of each mouse serves as a control and is injected with 25 μl of isotonic saline. The right hind paw serves as the experimental paw and is injected with 25 μl of isotonic saline containing 13 μg histamine dihydrochloride. Thirty minutes later the mice are killed by cervical dislocation and both hind paws of each mouse are removed by cutting at the tarsal joint. The weight of each paw is recorded and the difference in weight between the compound-treated and the placebo-treated groups is evaluated using Student's "t" test. The ED50 values (the dose causing 50% inhibition of histamine-induced edema) and 95% confidence limits are determind by the Linear Least Square Dose-Response method [Brownlee, K. A., "Statistical Theory And Methodology In Science and Engineering", 2nd Ed., J. Wiley and Sons, New York, 1965, pp. 346-349].

CNS activity = experiment: CNS test procedures B, C and D taken together; type: in vivo, mice; settings: oral
Protocol: C. […] Mice were injected with 0.6% aqueous acetic acid at 10 mg/kg i.p. 15 minutes after oral administration of the test drug. The number of writhes for each animal was counted during a 10 minute period starting 3 minutes after acetic acid treatment. A writhe was defined as a sequence of arching of the back, pelvic rotation and hind limb extension.
One hour after oral administration of the test drug or vehicle, mice were administered a 13 mA, 60 cycle a.c. electroconvulsant shock (ECS) for 0.2 seconds via corneal electrodes.

[3] = Toxicity (no method given); settings: in vivo
[4] = Antagonism of physostigmine lethality (B); type: in vivo, mice; settings: mouse, physostigmine-induced lethality; oral, unit inferred; read-out: ED50 in the physostigmine-induced lethality test
Protocol: B. Antagonism of Physostigmine Lethality. […] Physostigmine salicylate (b 1.0 mg/kg s.c.) produces 100% lethality when administered to mice grouped 10 per plastic cage (11×26×13 cm). Test agents were administered orally 30 minutes prior to physostigmine. The number of survivors were counted 20 minutes after physostigmine administration.

[5] = tested on: behavior, neurologic function and autonomic function in mice; settings: po; score of 2 or greater in at least 3 of 6 animals
Source text: A semiquantitative scoring scale was used where signs normally present (e.g., spontaneous activity, alertness, pupil size) were assigned a "normal" score of 0 and scores of +1, +2 and +3 indicated slight, moderate and marked increases and scores of -1, -2 and -3 indicated slight, moderate and marked decreases from "normality". When a sign occurred that is not normally present (e.g., convulsions, tremors), its magnitude was graded on a 1-3 scale. Each treatment group consisted of 6 animals and evaluations were conducted 1 hour after dosing. Additional observations for lethality were made for up to 24 hours after dosing. Incidence is defined as the observation occurring in an animal with a score of 2 or greater according to the scoring method defined above.
^a Minimal effective dose, defined as the lowest dose that produced a

| Compound | ED50 [1] [mg/kg] | ED50 ([2]; Mus musculus, po, 1 h) [mg/kg] | Activity in all of the CNS test procedures (CNS activity) | Toxicity [3] | ED50 [4] [mg/kg] | MED, Lethality [5] [mg/kg] | Increased Paw Weight, Mean ([2]; oral dose 0.03 mg/kg, 8 animals) [mg] | Increased Paw Weight, Mean ([2]; oral dose 0.1 mg/kg, 7 animals) [mg] | Increased Paw Weight, Mean ([2]; oral dose 0.3 mg/kg, 8 animals) [mg] | Increased Paw Weight, Mean ([2]; oral dose 1.0 mg/kg, 8 animals) [mg] |
| --- | --- | --- | --- | --- | --- | --- | --- | --- | --- | --- |
| Fc1ccc2c(c1)CCc1cccnc1C2=C1CCNCC1 [Compound B, 8-fluoro-6,11-dihydro-11-(4-piperidylidene)-5H-benzo[5,6]cyclohepta[1,2-b]pyridine] | 0.09 | < 3 | relatively inactive | very low toxicity | > 320 |  |  |  |  |  |
| Clc1ccc2c(c1)CCc1cccnc1C2=C1CCNCC1 [Compound A, 8-chloro-6,11-dihydro-11-(4-piperidylidene)-5H-benzo[5,6]cyclohepta[1,2-b]pyridine] |  |  |  |  |  | 300 | 19.9 | 13.0 | 6.1 | 2.5 |
